According to ChEMBL document CHEMBL3045787, “Synthesis of novel 1,4-naphthoquinone derivatives: antibacterial and antifungal agents” (2013):
Converted amounts (≈) assume the structure as drawn. The source made the active and inactive calls. The calls are words filed in the database; no cut-off is given here.

Legend:
Aspergillus niger [1] = assay: Antifungal activity against Aspergillus niger assessed as growth inhibition after 24 to 72 hr by serial dilution method; assay type: functional
Mycobacterium [2] = assay: Antibacterial activity against Mycobacterium luteum B-917 assessed as growth inhibition at 0.1% after 24 hr by agar disk diffusion method; assay type: functional
Aspergillus niger [3] = assay: Antifungal activity against Aspergillus niger assessed as growth inhibition at 0.1% after 48 to 72 hr by agar disk diffusion method; assay type: functional
Mycobacterium [4] = assay: Antibacterial activity against Mycobacterium luteum B-917 assessed as growth inhibition after 24 to 72 hr by serial dilution method; assay type: functional
Aspergillus niger [5] = assay: Antifungal activity against Aspergillus niger assessed as growth inhibition at 0.5% after 48 to 72 hr by agar disk diffusion method; assay type: functional
Yamadazyma tenuis [6] = assay: Antifungal activity against Candida tenuis assessed as growth inhibition after 24 to 72 hr by serial dilution method; assay type: functional
Escherichia coli [7] = assay: Antibacterial activity against Escherichia coli B 906 assessed as growth inhibition at 0.5% after 24 hr by agar disk diffusion method; assay type: functional
Mycobacterium [8] = assay: Antibacterial activity against Mycobacterium luteum B-917 assessed as growth inhibition at 0.5% after 24 hr by agar disk diffusion method; assay type: functional
Escherichia coli [9] = assay: Antibacterial activity against Escherichia coli B 906 assessed as growth inhibition after 24 to 72 hr by serial dilution method; assay type: functional, organism-based
Yamadazyma tenuis [10] = assay: Antifungal activity against Candida tenuis assessed as growth inhibition at 0.5% after 48 to 72 hr by agar disk diffusion method; assay type: functional
Escherichia coli [11] = assay: Antibacterial activity against Escherichia coli B 906 assessed as growth inhibition at 0.1% after 24 hr by agar disk diffusion method; assay type: functional
Staphylococcus aureus [12] = assay: Antibacterial activity against Staphylococcus aureus 209-P assessed as growth inhibition after 24 to 72 hr by serial dilution method; assay type: functional
Staphylococcus aureus [13] = assay: Antibacterial activity against Staphylococcus aureus 209-P assessed as growth inhibition at 0.1% after 24 hr by agar disk diffusion method; assay type: functional
Yamadazyma tenuis [14] = assay: Antifungal activity against Candida tenuis assessed as growth inhibition at 0.1% after 48 to 72 hr by agar disk diffusion method; assay type: functional
Staphylococcus aureus [15] = assay: Antibacterial activity against Staphylococcus aureus 209-P assessed as growth inhibition at 0.5% after 24 hr by agar disk diffusion method; assay type: functional

Compound: CCOC1=C(Sc2nccn2C)C(=O)c2ccccc2C1=O
- MIC (Aspergillus niger [1]): 15.6 µg/mL (≈ 49.6 µM)
- diameter of the inhibition zone (DIZ) (Mycobacterium [2]): 0 mm
- diameter of the inhibition zone (DIZ) (Aspergillus niger [3]): 0 mm
- MIC (Mycobacterium [4]): inactive
- diameter of the inhibition zone (DIZ) (Aspergillus niger [5]): 12 mm
- MIC (Yamadazyma tenuis [6]): 250 µg/mL (≈ 795 µM)
- diameter of the inhibition zone (DIZ) (Escherichia coli [7]): 0 mm
- diameter of the inhibition zone (DIZ) (Mycobacterium [8]): 0 mm
- MIC (Escherichia coli [9]): inactive
- diameter of the inhibition zone (DIZ) (Yamadazyma tenuis [10]): 0 mm
- diameter of the inhibition zone (DIZ) (Escherichia coli [11]): 0 mm
- MIC (Staphylococcus aureus [12]): inactive
- diameter of the inhibition zone (DIZ) (Staphylococcus aureus [13]): 0 mm
- diameter of the inhibition zone (DIZ) (Yamadazyma tenuis [14]): 0 mm
- diameter of the inhibition zone (DIZ) (Staphylococcus aureus [15]): 0 mm

Compound: O=C1C(SCc2ccc(Cl)cc2)=C(N2CCCCC2)C(=O)c2ccccc21
- MIC (Aspergillus niger [1]): inactive
- diameter of the inhibition zone (DIZ) (Mycobacterium [2]): 0 mm
- diameter of the inhibition zone (DIZ) (Aspergillus niger [3]): 0 mm
- MIC (Mycobacterium [4]): 250 µg/mL (≈ 628 µM)
- diameter of the inhibition zone (DIZ) (Aspergillus niger [5]): 0 mm
- MIC (Yamadazyma tenuis [6]): inactive
- diameter of the inhibition zone (DIZ) (Escherichia coli [7]): 0 mm
- diameter of the inhibition zone (DIZ) (Mycobacterium [8]): 9 mm
- MIC (Escherichia coli [9]): inactive
- diameter of the inhibition zone (DIZ) (Yamadazyma tenuis [10]): 0 mm
- diameter of the inhibition zone (DIZ) (Escherichia coli [11]): 0 mm
- MIC (Staphylococcus aureus [12]): inactive
- diameter of the inhibition zone (DIZ) (Staphylococcus aureus [13]): 0 mm
- diameter of the inhibition zone (DIZ) (Yamadazyma tenuis [14]): 0 mm
- diameter of the inhibition zone (DIZ) (Staphylococcus aureus [15]): 0 mm

Compound: O=C1C(SCc2ccc(Cl)cc2)=C(N2CCC(C(O)(c3ccccc3)c3ccccc3)CC2)C(=O)c2ccccc21
- MIC (Aspergillus niger [1]): 31.2 µg/mL (≈ 53.8 µM)
- diameter of the inhibition zone (DIZ) (Mycobacterium [2]): 0 mm
- diameter of the inhibition zone (DIZ) (Aspergillus niger [3]): 0 mm
- MIC (Mycobacterium [4]): inactive
- diameter of the inhibition zone (DIZ) (Aspergillus niger [5]): 0 mm
- MIC (Yamadazyma tenuis [6]): 7.8 µg/mL (≈ 13.4 µM)
- diameter of the inhibition zone (DIZ) (Escherichia coli [7]): 0 mm
- diameter of the inhibition zone (DIZ) (Mycobacterium [8]): 0 mm
- MIC (Escherichia coli [9]): inactive
- diameter of the inhibition zone (DIZ) (Yamadazyma tenuis [10]): 0 mm
- diameter of the inhibition zone (DIZ) (Escherichia coli [11]): 0 mm
- MIC (Staphylococcus aureus [12]): inactive
- diameter of the inhibition zone (DIZ) (Staphylococcus aureus [13]): 0 mm
- diameter of the inhibition zone (DIZ) (Yamadazyma tenuis [14]): 0 mm
- diameter of the inhibition zone (DIZ) (Staphylococcus aureus [15]): 0 mm

Compound: O=C1C(SCCOc2ccccc2)=C(SCCOc2ccccc2)C(=O)c2ccccc21
- MIC (Aspergillus niger [1]): 7.8 µg/mL (≈ 16.9 µM)
- diameter of the inhibition zone (DIZ) (Mycobacterium [2]): 0 mm
- diameter of the inhibition zone (DIZ) (Aspergillus niger [3]): 0 mm
- MIC (Mycobacterium [4]): inactive
- diameter of the inhibition zone (DIZ) (Aspergillus niger [5]): 0 mm
- MIC (Yamadazyma tenuis [6]): 125 µg/mL (≈ 270 µM)
- diameter of the inhibition zone (DIZ) (Escherichia coli [7]): 0 mm
- diameter of the inhibition zone (DIZ) (Mycobacterium [8]): 8 mm
- MIC (Escherichia coli [9]): inactive
- diameter of the inhibition zone (DIZ) (Yamadazyma tenuis [10]): 0 mm
- diameter of the inhibition zone (DIZ) (Escherichia coli [11]): 0 mm
- MIC (Staphylococcus aureus [12]): inactive
- diameter of the inhibition zone (DIZ) (Staphylococcus aureus [13]): 0 mm
- diameter of the inhibition zone (DIZ) (Yamadazyma tenuis [14]): 0 mm
- diameter of the inhibition zone (DIZ) (Staphylococcus aureus [15]): 0 mm

Compound: O=C1C(SCc2ccc(Cl)cc2)=C(N2CCN(c3ccccc3F)CC2)C(=O)c2ccccc21
- MIC (Aspergillus niger [1]): inactive
- diameter of the inhibition zone (DIZ) (Mycobacterium [2]): 0 mm
- diameter of the inhibition zone (DIZ) (Aspergillus niger [3]): 0 mm
- MIC (Mycobacterium [4]): inactive
- diameter of the inhibition zone (DIZ) (Aspergillus niger [5]): 0 mm
- MIC (Yamadazyma tenuis [6]): inactive
- diameter of the inhibition zone (DIZ) (Escherichia coli [7]): 0 mm
- diameter of the inhibition zone (DIZ) (Mycobacterium [8]): 0 mm
- MIC (Escherichia coli [9]): inactive
- diameter of the inhibition zone (DIZ) (Yamadazyma tenuis [10]): 0 mm
- diameter of the inhibition zone (DIZ) (Escherichia coli [11]): 0 mm
- MIC (Staphylococcus aureus [12]): inactive
- diameter of the inhibition zone (DIZ) (Staphylococcus aureus [13]): 0 mm
- diameter of the inhibition zone (DIZ) (Yamadazyma tenuis [14]): 0 mm
- diameter of the inhibition zone (DIZ) (Staphylococcus aureus [15]): 0 mm

Compound: CCOC1=C(Sc2ccc(O)cc2)C(=O)c2ccccc2C1=O
- MIC (Aspergillus niger [1]): 15.6 µg/mL (≈ 47.8 µM)
- diameter of the inhibition zone (DIZ) (Mycobacterium [2]): 0 mm
- diameter of the inhibition zone (DIZ) (Aspergillus niger [3]): 0 mm
- MIC (Mycobacterium [4]): 125 µg/mL (≈ 383 µM)
- diameter of the inhibition zone (DIZ) (Aspergillus niger [5]): 0 mm
- MIC (Yamadazyma tenuis [6]): 31.2 µg/mL (≈ 95.6 µM)
- diameter of the inhibition zone (DIZ) (Escherichia coli [7]): 0 mm
- diameter of the inhibition zone (DIZ) (Mycobacterium [8]): 0 mm
- MIC (Escherichia coli [9]): inactive
- diameter of the inhibition zone (DIZ) (Yamadazyma tenuis [10]): 0 mm
- diameter of the inhibition zone (DIZ) (Escherichia coli [11]): 0 mm
- MIC (Staphylococcus aureus [12]): inactive
- diameter of the inhibition zone (DIZ) (Staphylococcus aureus [13]): 0 mm
- diameter of the inhibition zone (DIZ) (Yamadazyma tenuis [14]): 0 mm
- diameter of the inhibition zone (DIZ) (Staphylococcus aureus [15]): 0 mm

Compound: CN[C@H](CC(C)C)C(=O)N[C@H]1C(=O)N[C@@H](CC(N)=O)C(=O)N[C@H]2C(=O)N[C@H]3C(=O)N[C@H](C(=O)N[C@H](C(=O)O)c4cc(O)cc(O)c4-c4cc3ccc4O)[C@H](O)c3ccc(c(Cl)c3)Oc3cc2cc(c3O[C@@H]2O[C@H](CO)[C@@H](O)[C@H](O)[C@H]2O[C@H]2C[C@](C)(N)[C@H](O)[C@H](C)O2)Oc2ccc(cc2Cl)[C@H]1O [VANCOMYCIN]
- diameter of the inhibition zone (DIZ) (Mycobacterium [2]): 18 mm
- diameter of the inhibition zone (DIZ) (Escherichia coli [11]): 14 mm
- diameter of the inhibition zone (DIZ) (Staphylococcus aureus [13]): 15 mm

Compound: NYSTATIN
- inhibition zone (IZ) (Aspergillus niger [3]): 20 mm
- inhibition zone (IZ) (Yamadazyma tenuis [14]): 19 mm
